The results in this text go back to patent US20040029910A1, “Protoberberine derivatives which inhibit activity of the mitogen-activated protein kinase” (priority 2000, published 2004).

The target in one assay is T1, Spc1 kinase (Schizosaccharomyces pombe, UniProt Q09892).
T1 construct: The genes wis1 and spc1 were cloned into the pRep1 vector containing nmt1 promoter; made in house; host or cells: Schizosaccharomyces pombe KGY246 (pRep1 vector, nmt1 promoter)
T1 sequence (Q09892 1-349): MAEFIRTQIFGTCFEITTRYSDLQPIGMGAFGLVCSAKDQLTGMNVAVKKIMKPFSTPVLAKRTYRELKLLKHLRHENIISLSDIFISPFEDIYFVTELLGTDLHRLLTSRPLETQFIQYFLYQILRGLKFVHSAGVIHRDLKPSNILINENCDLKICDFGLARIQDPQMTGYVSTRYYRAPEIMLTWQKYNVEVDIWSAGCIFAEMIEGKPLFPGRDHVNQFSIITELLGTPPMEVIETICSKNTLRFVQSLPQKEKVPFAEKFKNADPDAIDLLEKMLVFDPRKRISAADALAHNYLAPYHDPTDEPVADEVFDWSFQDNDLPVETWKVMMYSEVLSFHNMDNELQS
Briefly: Spc1 kinase activity, myelin basic protein substrate ([γ-32P]ATP, SDS-PAGE, FIG. 3). The settings on record: purified GST-Spc1, myelin basic protein as substrate. The assay is classed as biochemical. As for the experimental part: The genes wis1 and spc1 were cloned into the pRep1 vector containing nmt1 promoter of which expression was inhibited by thiamin in the medium and able to tag GST. The KGY246 cells, wild type Schizosaccharomyces pombe cells were transformed with this plasmid. The expression of Wis1 and Spc1 kinase tagged with GST was induced by the cultivation of the transformed cells in MM^AU medium containing 0.4 mM thiamin followed by cultivation to exponential phase(5×10^6 cells) for about 20 hours in 100 mL of MM^AU medium in which thiamin was withdrawn. […]
Before Wis1 and Spc1 kinases purified in example 4 were analyzed, they were pre-incubated in analyzing buffer of kinase (50 mM Tris-Cl pH7.4, 20 mM MgCl2, 5 mM EGTA, 2 mM Na vanadate, 1 mM DTT). […] Therefore, the degree of Wis1 autophosphorylation was also measured.

A further assay addresses T2, Wis1 kinase (Schizosaccharomyces pombe, UniProt P33886).
T2 construct: The genes wis1 and spc1 were cloned into the pRep1 vector containing nmt1 promoter; made in house; host or cells: Schizosaccharomyces pombe KGY246 (pRep1 vector, nmt1 promoter)
T2 sequence (P33886 1-605): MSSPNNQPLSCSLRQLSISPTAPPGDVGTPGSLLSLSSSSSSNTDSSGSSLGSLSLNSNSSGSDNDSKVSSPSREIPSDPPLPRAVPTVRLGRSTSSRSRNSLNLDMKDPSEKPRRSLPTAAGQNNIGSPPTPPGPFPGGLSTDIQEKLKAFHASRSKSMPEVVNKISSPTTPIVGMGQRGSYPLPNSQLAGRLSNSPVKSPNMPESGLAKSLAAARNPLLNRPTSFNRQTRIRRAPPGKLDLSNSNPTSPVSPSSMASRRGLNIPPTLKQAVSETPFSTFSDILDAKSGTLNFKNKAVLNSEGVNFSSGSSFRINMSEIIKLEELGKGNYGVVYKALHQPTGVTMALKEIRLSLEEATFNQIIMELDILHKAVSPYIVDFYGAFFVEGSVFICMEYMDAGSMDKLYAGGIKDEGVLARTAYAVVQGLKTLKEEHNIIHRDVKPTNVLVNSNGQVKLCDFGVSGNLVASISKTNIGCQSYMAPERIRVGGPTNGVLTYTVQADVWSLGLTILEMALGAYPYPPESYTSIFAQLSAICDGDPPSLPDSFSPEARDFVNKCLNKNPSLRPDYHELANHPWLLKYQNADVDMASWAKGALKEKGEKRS
Briefly: Wis1 kinase activity and autophosphorylation ([γ-32P]ATP, SDS-PAGE, FIG. 2). In kind it is biochemical. The settings on record: purified GST-Wis1, kinase reaction 30° C. 30 minutes, autophosphorylation also measured. The method, then:
The genes wis1 and spc1 were cloned into the pRep1 vector containing nmt1 promoter of which expression was inhibited by thiamin in the medium and able to tag GST. The KGY246 cells, wild type Schizosaccharomyces pombe cells were transformed with this plasmid. The expression of Wis1 and Spc1 kinase tagged with GST was induced by the cultivation of the transformed cells in MM^AU medium containing 0.4 mM thiamin followed by cultivation to exponential phase(5×10^6 cells) for about 20 hours in 100 mL of MM^AU medium in which thiamin was withdrawn. After osmotic shock(0.6M KCl) and oxidative stress were given to the cells expressing Wis1 and Spc1 tagged with GST for 25 minutes, cells were recovered at 4° C., washed with ice-cold PBS/NaF(50 mM)/NaN3(1 mM) buffer and HB buffer(25 mM HEPES, pH 7.5, 60 mM β-glycerophosphate, 15 mM EGTA, 0.1 mM Na vanadate, 0.1% triton and hydrolyzed using glass bead and bead beater purchased from Sigma. The supernatant of hydrolyzed cells was incubated with 100 mM NaCl for salting-out to remove unnecessary proteins. After the supernatant was incubated with 0.045 g/ml GST beads for 1.5 hours, proteins not bound to GST beads were removed. Purified Wis1 and Spc1 kinases were separated on 7% SDS-PAGE and the degree of purification was confirmed by western blotting using GST antibody.
Before Wis1 and Spc1 kinases purified in example 4 were analyzed, they were pre-incubated in analyzing buffer of kinase (50 mM Tris-Cl pH7.4, 20 mM MgCl2, 5 mM EGTA, 2 mM Na vanadate, 1 mM DTT). The kinase reaction was performed at 30° C. for 30 minutes in the presence of 1 mg/ml myelin basic protein(MBP), 1 mM ATP and 20 uCi of [γ-^32p]ATP and then terminated by adding SDS sample buffer and heating at 90° C. for 5 minutes. The reaction mixtures were separated on SDS-polyacrylamide gel electrophoresis. After fixation with 10% acetic acid: 10% methanol and drying, the gel was exposed on X-ray film. When Wis1 is activated by stimulus, it also activates autophosphorylation. Therefore, the degree of Wis1 autophosphorylation was also measured.

In the next assay the test system is KGY246 (wild type). Briefly: Growth (cell number) of wild type strain KGY246. In kind it is cell-based, Schizosaccharomyces pombe. The method, then: To investigate the effect of protoberberine derivatives on the growth of cells, the cells of each strain were cultured in rich medium YE^AU to exponential phase(5×10^7 cells/mL). These cells were transferred to YE^AU medium and cultured for 12 hours. Then cell number was measured every 3 hours.

In the case of `CCCOc1cc2c(cc1OCCC)-c1cc3ccc(OCCC)c(OCCC)c3c[n+]1CC2.[I-]` [2,3,9,10-tetrapropoxyprotoberberine iodide], the “inhibition of Spc1 kinase activity (in words)” value against Spc1 kinase is listed as “directly inhibited”.

As for `COc1ccc2c(Cc3ccc(C(C)(C)C)cc3)c3[n+](cc2c1OC)CCc1cc2c(cc1-3)OCO2.[Cl-]` [13-(4-t-butylbenzyl)berberine chloride], on Wis1 kinase, the “inhibition of Wis1 kinase activity (in words)” value is “directly inhibited”.

As to `COc1ccc2c(Cc3ccc(O[Si](C)(C)C(C)(C)C)cc3)c3[n+](cc2c1OC)CCc1cc2c(cc1-3)OCO2.[Cl-]` [13-(4-(t-butyldimethylsilyloxy)benzyl)berberine chloride], the cell number with KGY246 (wild type) (Table 2, KGY246, time 14) was 20; in the assay with KGY246 (wild type) (Table 2, KGY246, time 17), 19; with KGY246 (wild type) (Table 2, KGY246, time 20), 22; in the assay with KGY246 (wild type) (Table 2, KGY246, time 23) it was 16. Further, the “inhibition of Wis1 kinase activity (in words)” value at Wis1 kinase is listed as “directly inhibited”.
